Measurements published in US12630552B2, “Inhibitors of KRAS G12C” (BEIGENE, LTD., priority 2019, dated 2026).

biological target: T1, KRAS (aa 1-169) G12C, C51S, C80L, C118S (Homo sapiens, UniProt P01116, C118S/C51S/C80L/G12C); test: KRAS G12C SOS1-mediated nucleotide exchange / GST-cRaf RBD binding FRET assay; assay type: biochemical; details: GDP-loaded KRAS G12C pre-incubated with compound at 24° C. for 3 hrs; SOS1, GTPγS and GST-cRaf RBD added; FRET 665 nm/620 nm
T1 construct: The KRAS (aa 1-169) G12C, C51S, C80L, C118S with a His-tag; made in house
Protocol: Biochemical Functional Assay:
The KRAS (aa 1-169) G12C, C51S, C80L, C118S with a His-tag was expressed, purified and loaded with GDP in house. All protein and substrate solutions were prepared in assay buffer containing 25 mM HEPES pH7.5, 10 mM MgCl2, and 0.01% Triton X-100. Purified GDP-loaded KRAS (aa 1-169) G12C, C51S, C80L, C118S protein was pre-incubated with a serially diluted compound at 24° C. for 3 hrs. Purified SOS1 (aa 564-1049) protein, GTPγS (Sigma) and GST-cRaf RBD (aa 1-149) were then added to each well and incubated at 24° C. for additional 3 hrs. […] Following the incubation, Mab Anti-6HIS-Tb cryptate (Cisbio) and Mab Anti GST-XL665 (Cisbio) were added and further incubated at 24° C. for 3 hrs. The binding interaction between active GTPγS KRAS G12C and GST-cRaf RBD brings the Tb and XL665 into close proximity enabling an increased FRET signal (Ex337 nm, Em665 nm/620 nm). The inhibition percentage of nucleotide exchange reaction in presence of increasing concentrations of compounds was calculated based on the ratio of fluorescence at 665 nm to that at 620 nm detected on a BMG PHERAstar FSX instrument. The IC50 value of each compound was calculated from fitting the data to the four-parameter logistic model by Dotmatics.

T1 sequence (P01116 1-169 isoform P01116-2 G12C/C51S/C80L/C118S): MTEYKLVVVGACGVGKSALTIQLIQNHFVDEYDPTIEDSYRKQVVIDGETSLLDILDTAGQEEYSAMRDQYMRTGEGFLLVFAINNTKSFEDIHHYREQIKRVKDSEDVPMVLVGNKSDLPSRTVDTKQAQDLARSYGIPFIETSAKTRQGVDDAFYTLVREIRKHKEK

Compared with C=CC(=O)N1CCN(c2nc(OCC3CCCN3C)nc3c2CN(C2Cc4cccc5cccc2c45)C3)CC1CC#N (single isomer, unassigned) [Example 15 (P1)], C=CC(=O)N1CCN(c2nc(OC3CCN(C)CC3)nc3c2CN(C2Cc4cccc5cccc2c45)C3)CC1CC#N (single isomer, unassigned) [Example 17 (P1)] is 4.5-fold higher in IC50: 492 nM for the first, 2200 nM for the second. The first is the more potent here.

First: C=CC(=O)N1CCN(c2nc(OCC3CCCN3C)nc3c2CN(C2Cc4cccc5cccc2c45)C3)CC1CC#N (single isomer, unassigned) [Example 15 (P2)]
Second: C=CC(=O)N1CCN(c2nc(OC3CCN(C)CC3)nc3c2CN(C2Cc4cccc5cccc2c45)C3)CC1CC#N (single isomer, unassigned) [Example 17 (P2)]
The IC50 of the first is 180-fold lower: 5.27 nM for the first, 949 nM for the second.

Compared with C=CC(=O)N1CCN(c2nc(N3CC(N(C)C)C3)nc3c2CN(C2Cc4cccc5cccc2c45)C3)CC1CC#N (single isomer, unassigned) [Example 16 (P1)], C=CC(=O)N1CCN(c2nc(N3CC(N(C)C)C3)nc3c2CN(Cc2cccc4ccccc24)C3)C[C@@H]1CC#N [Example 19, (S)-2-(1-acryloyl-4-(2-(3-(dimethylamino)azetidin-1-yl)-6-(naphthalen-1-ylmethyl)-6,7-dihydro-5H-pyrrolo[3,4-d]pyrimidin-4-yl)piperazin-2-yl)acetonitrile] is 5.8-fold lower in IC50: 5650 nM for the first, 976 nM for the second. The second is the more potent here.

C=CC(=O)N1CCN(c2nc(N3CC(N(C)C)C3)nc3c2CN(C2Cc4cccc5cccc2c45)C3)CC1CC#N (single isomer, unassigned) [Example 16 (P2)] and C=CC(=O)N1CCN(c2nc(OC3CCN(C4CCOCC4)CC3)nc3c2CN(C2Cc4cccc5cccc2c45)C3)C[C@@H]1CC#N (stereo partly drawn) [Example 12, 2-((2S)-1-acryloyl-4-(6-(1,2-dihydroacenaphthylen-1-yl)-2-((1-(tetrahydro-2H-pyran-4-yl)piperidin-4-yl)oxy)-6,7-dihydro-5H-pyrrolo[3,4-d]pyrimidin-4-yl)piperazin-2-yl)acetonitrile] are within 1.5-fold of each other in IC50: 256 nM for the first, 379 nM for the second.

First: C=CC(=O)N1CCN(c2nc(OC[C@@H]3CCCN3C)nc3c2CN(Cc2cccc4ccccc24)C3)CC1 [Example 1, (S)-1-(4-(2-((1-methylpyrrolidin-2-yl)methoxy)-6-(naphthalen-1-ylmethyl)-6,7-dihydro-5H-pyrrolo[3,4-d]pyrimidin-4-yl)piperazin-1-yl)prop-2-en-1-one]
Second: CN(C)C/C=C/C(=O)N1CCN(c2nc(OC[C@@H]3CCCN3C)nc3c2CN(Cc2cccc4ccccc24)C3)CC1 [Example 2, (S, E)-4-(dimethylamino)-1-(4-(2-((1-methylpyrrolidin-2-yl)methoxy)-6-(naphthalen-1-ylmethyl)-6,7-dihydro-5H-pyrrolo[3,4-d]pyrimidin-4-yl)piperazin-1-yl)but-2-en-1-one]
The IC50 of the first is 14-fold lower: 3280 nM for the first, 46000 nM for the second. The first is the more potent here.

Compared with C=CS(=O)(=O)N1CCN(c2nc(OC[C@@H]3CCCN3C)nc3c2CN(Cc2cccc4ccccc24)C3)CC1 [Example 3, (S)-2-((1-methylpyrrolidin-2-yl)methoxy)-6-(naphthalen-1-ylmethyl)-4-(4-(vinylsulfonyl)piperazin-1-yl)-6,7-dihydro-5H-pyrrolo[3,4-d]pyrimidine], C=CC(=O)N1CCN(c2nc(OC[C@@H]3CCCN3C)nc3c2CN(Cc2cccc4ccccc24)C3)C[C@@H]1CC#N [Example 6, 2-((S)-1-acryloyl-4-(2-(((S)-1-methylpyrrolidin-2-yl)methoxy)-6-(naphthalen-1-ylmethyl)-6,7-dihydro-5H-pyrrolo[3,4-d]pyrimidin-4-yl)piperazin-2-yl)acetonitrile] is 860-fold lower in IC50: 23700 nM for the first, 27.7 nM for the second.

Going from C=CC(=O)N1CCN(c2nc(OC[C@@H]3CCCN3C)nc3c2CN(Cc2cccc(C)c2C)C3)C[C@@H]1CC#N [Example 5, 2-((S)-1-acryloyl-4-(6-(2,3-dimethylbenzyl)-2-(((S)-1-methylpyrrolidin-2-yl)methoxy)-6,7-dihydro-5H-pyrrolo[3,4-d]pyrimidin-4-yl)piperazin-2-yl)acetonitrile] to C=CC(=O)N1CCN(c2nc(OC[C@@H]3CCCN3C)nc3c2CN(Cc2cccc4cccc(C)c24)C3)C[C@@H]1CC#N [Example 8, 2-((S)-1-acryloyl-4-(6-((8-methylnaphthalen-1-yl)methyl)-2-(((S)-1-methylpyrrolidin-2-yl)methoxy)-6,7-dihydro-5H-pyrrolo[3,4-d]pyrimidin-4-yl)piperazin-2-yl)acetonitrile], the IC50 rises from 56.1 nM to 495 nM (8.8-fold).

C=CC(=O)N1CCN(c2nc(OC[C@@H]3CCCN3C)nc3cn(Cc4cccc5ccccc45)cc23)C[C@@H]1CC#N [Example 7, 2-((S)-1-acryloyl-4-(2-(((S)-1-methylpyrrolidin-2-yl)methoxy)-6-(naphthalen-1-ylmethyl)-6H-pyrrolo[3,4-d]pyrimidin-yl)piperazin-2-yl)acetonitrile] and C=CC(=O)N1CCN(c2nc(OC[C@@H]3CCCN3C)nc3c2CN(C(C)c2cccc4ccccc24)C3)C[C@@H]1CC#N (stereo partly drawn) [Example 11, 2-((2S)-1-acryloyl-4-(2-(((S)-1-methylpyrrolidin-2-yl)methoxy)-6-(1-(naphthalen-1-yl)ethyl)-6,7-dihydro-5H-pyrrolo[3,4-d]pyrimidin-4-yl)piperazin-2-yl)acetonitrile] are within 1.5-fold of each other in IC50: 174 nM for the first, 170 nM for the second.

Going from C=CC(=O)N1CCN(c2nc(OC[C@@H]3CCCN3C)nc3c2CN(Cc2cccc4cccc(Cl)c24)C3)C[C@@H]1CC#N [Example 9, 2-((S)-1-acryloyl-4-(6-((8-chloronaphthalen-1-yl)methyl)-2-(((S)-1-methylpyrrolidin-2-yl)methoxy)-6,7-dihydro-5H-pyrrolo[3,4-d]pyrimidin-4-yl)piperazin-2-yl)acetonitrile] to C=CC(=O)N1CCN(c2nc(OC[C@@H]3CCCN3C)nc3c2CN(Cc2ccc4ccccc4c2)C3)C[C@@H]1CC#N [Example 20, 2-((S)-1-acryloyl-4-(2-(((S)-1-methylpyrrolidin-2-yl)methoxy)-6-(naphthalen-2-ylmethyl)-6,7-dihydro-5H-pyrrolo[3,4-d]pyrimidin-4-yl)piperazin-2-yl)acetonitrile], the IC50 rises from 265 nM to 2880 nM (11-fold).

Going from C=CC(=O)N1CCN(c2nc(OC[C@@H]3CCCN3C)nc3c2CN(Cc2ccc(F)c4ccccc24)C3)C[C@@H]1CC#N [Example 10, 2-((S)-1-acryloyl-4-(6-((4-fluoronaphthalen-1-yl)methyl)-2-(((S)-1-methylpyrrolidin-2-yl)methoxy)-6,7-dihydro-5H-pyrrolo[3,4-d]pyrimidin-4-yl)piperazin-2-yl)acetonitrile] to C=CC(=O)N1CCN(c2nc(OC[C@@H]3CCCN3C)nc3c2CN(Cc2cccc4c2CCO4)C3)C[C@@H]1CC#N [Example 21, 2-((S)-1-acryloyl-4-(6-((2,3-dihydrobenzofuran-4-yl)methyl)-2-(((S)-1-methylpyrrolidin-2-yl)methoxy)-6,7-dihydro-5H-pyrrolo[3,4-d]pyrimidin-4-yl)piperazin-2-yl)acetonitrile], the IC50 falls from 415 nM to 92.5 nM (4.5-fold).

C=CC(=O)N1CCN(c2nc(OC3CCN(C)CC3)nc3c2CN(Cc2cccc4ccccc24)C3)C[C@@H]1CC#N [Example 18, (S)-2-(1-acryloyl-4-(2-((1-methylpiperidin-4-yl)oxy)-6-(naphthalen-1-ylmethyl)-6,7-dihydro-5H-pyrrolo[3,4-d]pyrimidin-4-yl)piperazin-2-yl)acetonitrile] showed an IC50 of 1560 nM.
